USRE48805E1, “Method for cancer targeting treatment and detection of arginine using albumin-binding arginine deiminase fusion protein” (Vision Global Holdings Ltd., priority 2013, dated 2021)

Key:
[1] = tested on: Mia-paca-2 pancreatic cancer cell xenografts; test: In vivo efficacy on Mia-paca-2 pancreatic cancer cell xenografts; design: species or system Nude balb/c mice (human pancreatic cancer xenograft); conditions: 100 mg/kg once a week, intraperitoneal, end of the time course
Description: Nude balb/c mice (4-6 weeks) are used and they are allowed to acclimatize for a week before the treatment. Mice are inoculated subcutaneously with 2×10^6 cancer cells in 100 μl of 1:1 PBS:Matrigel. Matrigel is used to augment the growth of tumors. Two weeks later, the mice are randomly separated into four groups of 4 animals in each group. Mice are intraperitoneally administered with PBS (control), AAD (5 U; twice a week), Gemcitabine, Gem (100 mg/kg; once a week) or AAD+Gem (a combination of both AAD and Gem) in 200 μl PBS. Tumor size is measured by caliper and tumor volume is calculated using formula: (length×width^2)/2. Body weight is measured every week. After the mice are sacrificed by end of the time course, the tumors are excised and weighed. […] The difference in the tumor size between control and AAD fusion protein-treatment group is about 60% at Day 28.

[2] = tested on: 22Rv1 prostate cancer cell xenografts; test: In vivo efficacy on 22Rv1 prostate cancer cell xenografts; design: species or system Nude balb/c mice (human prostate cancer xenograft); conditions: 10 mg/kg once a week, intraperitoneal
Description: Nude balb/c mice (4-6 weeks) are used and they are allowed to acclimatize for a week before the treatment. Mice are inoculated subcutaneously with 3×10^6 cancer cells in 100 μl PBS. Two weeks later, the mice are randomly separated into four groups of 5 animals in each group. Mice are intraperitoneally administered with PBS (control), AAD (5 U; twice a week), Docetaxel, DTX (10 mg/kg; once a week) or AAD+DTX (a combination of both AAD and DTX) in 200 ul PBS. Tumor size is measured by caliper and tumor volume is calculated using formula: (length×width^2)/2. Body weight is measured every week. After the mice are sacrificed by end of the time course, the tumors are excised and weighed.
The difference in the tumor size between control and AAD fusion protein- or DTX-treatment groups are about 55% and 54% at Day 22, respectively. Besides, the combination of AAD fusion protein and DTX-treatment group has a synergistic effect on tumor growth inhibition. Tumor growth of the combination treatment group is inhibited by about 94% when compared to that of the control group.

Row | SMILES | tumor size compared to control [1] | difference in the tumor size between control and DTX-treatment group ([2]; Day 22) | tumor size compared to control ([2]; end of the time course)
1 | Nc1ccn([C@@H]2O[C@H](CO)[C@@H](O)C2(F)F)c(=O)n1 [Gemcitabine] | significantly lower than that in control |  | 
2 | CC(=O)O[C@@]12CO[C@@H]1C[C@H](O)[C@@]1(C)C(=O)[C@H](O)C3=C(C)[C@@H](OC(=O)[C@H](O)[C@@H](NC(=O)OC(C)(C)C)c4ccccc4)C[C@@](O)([C@@H](OC(=O)c4ccccc4)[C@H]21)C3(C)C [docetaxel] |  | ~54% | significantly lower than that in control
